Patent US20040171688A1, “Carboxylic acids and derivatives thereof and pharmaceutical compositions containing them” (priority 1997, published 2004)

Legend:
HNF-4α [1] = target: T1, HNF-4α (Rattus norvegicus, UniProt P22449); experiment: Ligand binding assay with [3H]palmitoyl(16:0)-CoA on recombinant GST-HNF-4α(LBD) or His-HNF-4α
T1 construct: GST-HNF-4α(LBD) fusion protein consisting of amino acids 96-455 of wild type HNF-4α fused to GST; fused on or other part: Glutathione-S-transferase (GST) at the N-terminus of the LBD construct; 6-histidine tag on the full-length construct
T1 sequence (P22449 105-464 isoform P22449-2 limits assumed): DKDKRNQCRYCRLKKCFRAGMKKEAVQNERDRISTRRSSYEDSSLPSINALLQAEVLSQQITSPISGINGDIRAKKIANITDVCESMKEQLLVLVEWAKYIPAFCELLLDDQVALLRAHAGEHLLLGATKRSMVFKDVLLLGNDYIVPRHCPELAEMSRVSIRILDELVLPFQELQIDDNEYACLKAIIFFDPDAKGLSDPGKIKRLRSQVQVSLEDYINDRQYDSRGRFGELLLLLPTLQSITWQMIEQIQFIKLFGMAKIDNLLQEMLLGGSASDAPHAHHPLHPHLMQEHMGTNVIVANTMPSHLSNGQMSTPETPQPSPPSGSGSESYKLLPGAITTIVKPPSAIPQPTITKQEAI
Description: a. […] The respective recombinant proteins are incubated to equilibrium with [^3H]palmitoyl(16:0)-CoA (0.05 μCi) and with increasing nonlabeled palmitoyl(16:0)-CoA as indicated.
b. […] The respective recombinant proteins are incubated with 8 nM of [^3H]palmitoyl(16:0)-CoA (60 Ci/mmol) and with increasing nonlabeled myristoyl(14:0)-CoA as indicated. Percent bound refers to radiolabeled [^3H]palmitoyl(16:0)-CoA in the bound fraction. […] Percent bound refers to radiolabeled [^3H]palmitoyl(16:0)-CoA in the bound fraction.
Rat HNF-4α1 cDNA(pLEN4S)^1 was subcloned into the glutathione-S-transferase (GST) encoding pGEX-2T plasmid (Pharmacia) and the resultant plasmid was cleaved with smaI and AccI and religated to yield the GST-HNF-4α(LBD) fusion plasmid. […] The full length HNF-4α1 cDNA cloned into 6His-pET11d vector was expressed in E.coli BL21 (DE3)plysS.
Recombinant GST-HNF-4α(LBD) (100 pmol) or His-HNF-4α (100 pmol) were incubated for 60 min at 22° C. with [^3H]palmitoyl(16:0)-CoA (American RadiolabeledChemicals) in 100 μl of 10 mM phosphate buffer (pH 7.4). Competitor ligands or solvent carrier were added as indicated. Free and HNF-4α bound ^3[H]palmitoyl(16:0)-CoA were separated by […] and bound ligand was quantified by liquid scintillation counting. Nonspecific binding of [^3H]palmitoyl(16:0)-CoA was determined by its binding to the GST moiety or to carbonic anhydrase as nonrelevant protein.
Binding was exemplified with either the ligand binding domain of HNF-4α fused to glutathione-s-transferase (GST-HNF-4α(LBD)) or the full length HNF-4α protein tagged by 6 histidines (His-HNF-4α).

HNF-4α [2] = target: T2, HNF-4α (Rattus norvegicus, UniProt P22449); experiment: Transfection assay: COS-7 cells cotransfected with (C3P)3-TK-CAT reporter and pSG5-HNF-4α; assay type: cell-based; design: expressed in transfected cells; host or cells: COS-7; conditions: for EC50: proligands added to culture medium of COS-7 cells (FIG. 4b), read-out: EC50 of HNF-4α suppression (CAT activity); for inhibition of HNF-4α transcriptional activity, effectiveness in words: transfection assays, added to culture medium
T2 sequence (P22449 1-464 isoform P22449-2): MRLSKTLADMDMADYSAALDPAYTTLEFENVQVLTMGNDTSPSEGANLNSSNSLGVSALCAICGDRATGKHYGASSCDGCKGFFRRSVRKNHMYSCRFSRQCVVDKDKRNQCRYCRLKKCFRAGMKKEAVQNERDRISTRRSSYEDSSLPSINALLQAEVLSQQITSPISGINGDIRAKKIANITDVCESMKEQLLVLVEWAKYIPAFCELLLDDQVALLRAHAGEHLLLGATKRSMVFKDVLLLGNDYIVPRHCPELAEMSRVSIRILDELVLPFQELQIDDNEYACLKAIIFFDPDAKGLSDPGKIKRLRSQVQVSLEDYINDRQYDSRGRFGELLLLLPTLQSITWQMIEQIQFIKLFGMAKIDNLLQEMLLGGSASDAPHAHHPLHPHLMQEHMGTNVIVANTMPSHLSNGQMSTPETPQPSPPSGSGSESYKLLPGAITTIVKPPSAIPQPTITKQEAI
Description: a. […] Fold induction of CAT activity by transfected HNF-4I is determined by evaluating CAT activity in the presence of pSG5-HNF-4I as compared with pSG5 plasmid and as function of respective fatty acids added to the culture medium as indicated. The figure summarizes 3-4 independent experiments for each fatty acid. Mean ± S.E.
b. […] Fold induction refers to CAT activity in cells incubated with 3,3,12,12-tetramethyl-tetradecanedioic acid (∘), 3,3,14,14-tetramethyl-hexadecanedioic acid (□) and 3,3,16,16-tetramethyl-octadecanedioic acid (Δ) proligands normalized to the activity in cells incubated in the absence of added proligands.
COS-7 cells cotransfected for 6 h with the (C3P)3-TK-CAT reporter plasmid (5 μg) and with either the pSG5-HNF-4α expression plasmid ([…]) or the pSG5 plasmid (0.025 μg) added by calcium phosphate precipitation were cultured in serum free medium with fatty acids (complexed with albumin in a molar ratio of 6:1) added as indicated. β-Galactosidase expression vector pRSGAL (1 μg) added to each precipitate served as an internal control for transfection. The (C3P)3-TK-CAT construct was prepared by inserting a synthetic oligonucleotide encompassing the (−87/−66) Apo CIII promoter sequence (5′-[…]-3′) flanked by HindIII restriction site into pBLCAT2^47 upstream of the −105 bp thymidine kinase promoter. The construct containing three copies of the synthetic oligonucleotide in the direct orientation was selected and confirmed by sequencing.
The intracellular effect of HNF-4α ligands on HNF-4α mediated transcription was evaluated in COS-7 cells cotransfected with an expression vector for HNF-4α and with a CAT reporter plasmid driven by a thymidine kinase promoter and enhanced by one to three C3P copies of the apo CIII gene promoter. Transfected cells were incubated in the presence of free fatty acids and xenobiotic amphipathic carboxylates representing agonistic or antagonistic HNF-4α proligands.

HNF-4α [3] = target: T2, HNF-4α; experiment: Gel mobility shift assay: His-HNF-4α binding to C3P apo CIII promoter oligonucleotide; assay type: biochemical; design: The full length HNF-4α1 cDNA cloned into 6His-pET11d vector was expressed in E.coli BL21 (DE3)plysS; 6His; made in house; host or cells: E. coli BL21 (DE3)plysS; conditions: for direct effect on HNF-4α (summary): summary statement of Example 4
Description: a. His-HNF-4I (14 ng) binding to C3P in the absence (lane 1) or presence of 10 μM each of myristoyl(14:0)-CoA (lane 2) or palmitoyl(16:0)-CoA (lane 3).
b. His-HNF-4I (20 ng) binding to C3P in the absence (lane 1) or presence of 10 μM each of stearoyl(18:0)-CoA (lane 2) or linolenoyl(18:3, w-3)-CoA (lane 3).
c. Activation of His-HNF-4I (14 ng) binding to C3P by increasing concentrations of myristoyl(14:0)-CoA. The gel section containing radiolabeled C3P bound to His-HNF-4I dimer is shown.
His-HNF-4α and acyl-CoA (as indicated) were preincubated for 30 min at 22° C. in 11 mM Hepes (pH 7.9) containing 50 mM KCl, 1 mM dithiothreitol. 2.5 mM MgCl2, 10% glycerol, 1 μg of poly(dI-dC) in a final volume of 20 μl. ^32P-labeled oligonucleotide (0.1 ng) consisting of the human C3P apo CIII promoter sequence,(−87/−66)^6 was then added, and incubation was continued for an additional 15 min. Protein-DNA complexes were resolved by 5% nondenaturing polyacrylamide gel in 0.6×TBE and quantitated by PhosphorImager analysis.
HNF-4α activity as a function of binding of long chain acyl-CoAs was evaluated by studying the binding of HNF-4α to its cognate C3P element of the apo CIII promoter sequence (−87/−66)^6 in the presence or absence of added acyl-CoAs of variable chain length, degree of saturation, and degree of substitution. Binding was verified by using a gel mobility shift assay. […] Activation was concentration dependent and maximal in the presence of myristoyl(14:0)-CoA added within a concentration range required for its binding to HNF-4α.

[4] = competition with 8 nM [3H]palmitoyl(16:0)-CoA, GST-HNF-4α(LBD) or His-HNF-4α, read-out: EC50 (50% specific competition)

| SMILES | EC50 (HNF-4α [1]; [4]) | EC50 (HNF-4α [2]) | further results |
| --- | --- | --- | --- |
| CC(C)(CCCCCCCCC(C)(C)CC(=O)O)CC(=O)O [3,3,12,12-tetramethyl-tetradecanedioic acid] | 40 µM | > 300 µM |  |
| CC(C)(CCCCCCCCCCC(C)(C)CC(=O)O)CC(=O)O [3,3,14,14-tetramethyl-hexadecanedioic acid] | 8 µM | 155 µM | inhibition of HNF-4α transcriptional activity, effectiveness in words (HNF-4α [2]): Highly effective |
| CC(C)(CCCCCCCCCCCCC(C)(C)CC(=O)O)CC(=O)O [3,3,16,16-tetramethyl-octadecanedioic acid] | 8 µM | 150 µM | inhibition of HNF-4α transcriptional activity, effectiveness in words (HNF-4α [2]): Highly effective |
| CC(C)(Oc1ccc(CCNC(=O)c2ccc(Cl)cc2)cc1)C(=O)O [Bezafibrate, reference compound] |  | 260 µM | EC50 (HNF-4α [1]): 90 µM |
| CC/C=C\C/C=C\C/C=C\C/C=C\C/C=C\C/C=C\CCC(=O)SCCNC(=O)CCNC(=O)[C@H](O)C(C)(C)COP(=O)(O)OP(=O)(O)OC[C@H]1O[C@@H](n2cnc3c(N)ncnc32)[C@H](O)[C@@H]1OP(=O)(O)O [Docosahexaenoyl(22:6)-CoA] | 1.6 µM |  | direct effect on HNF-4α (summary) (HNF-4α [3]): direct inhibition |
| CCCCCCCCCCCC(=O)SCCNC(=O)CCNC(=O)[C@H](O)C(C)(C)COP(=O)(O)OP(=O)(O)OC[C@H]1O[C@@H](n2cnc3c(N)ncnc32)[C@H](O)[C@@H]1OP(=O)(O)O [Dodecanoyl(12:0)-CoA, reference compound] | 2.3 µM |  |  |
| CC/C=C\C/C=C\C/C=C\C/C=C\C/C=C\CCCC(=O)SCCNC(=O)CCNC(=O)[C@H](O)C(C)(C)COP(=O)(O)OP(=O)(O)OC[C@H]1O[C@@H](n2cnc3c(N)ncnc32)[C@H](O)[C@@H]1OP(=O)(O)O [Eicosapentaenoyl(20:5)-CoA] | 0.6 µM |  | direct effect on HNF-4α (summary) (HNF-4α [3]): direct inhibition |
| CC(C)Cc1ccc(C(C)C(=O)O)cc1 (centres unmarked) [Ibuprofen, reference compound] | 40 µM |  |  |
| CC/C=C\C/C=C\C/C=C\CCCCCCCC(=O)SCCNC(=O)CCNC(=O)[C@H](O)C(C)(C)COP(=O)(O)OP(=O)(O)OC[C@H]1O[C@@H](n2cnc3c(N)ncnc32)[C@H](O)[C@@H]1OP(=O)(O)O [Linolenoyl(18:3)-CoA] |  |  | effect on His-HNF-4α binding to C3P oligonucleotide (HNF-4α [3]; gel mobility shift, 10 μM acyl-CoA (FIG. 2)): potent inhibition; direct effect on HNF-4α (summary) (HNF-4α [3]): direct inhibition |
| CCCCC/C=C\C/C=C\CCCCCCCC(=O)SCCNC(=O)CCNC(=O)[C@H](O)C(C)(C)COP(=O)(O)OP(=O)(O)OC[C@H]1O[C@@H](n2cnc3c(N)ncnc32)[C@H](O)[C@@H]1OP(=O)(O)O [Linoleoyl(18:2)-CoA] | 1.9 µM |  |  |
| CC(C)(Oc1ccc(C2CCCc3ccccc32)cc1)C(=O)O (centres unmarked) [Nafenopin, reference compound] | 90 µM | 160 µM |  |
| CCCCCCCC/C=C\CCCCCCCC(=O)SCCNC(=O)CCNC(=O)[C@H](O)C(C)(C)COP(=O)(O)OP(=O)(O)OC[C@H]1O[C@@H](n2cnc3c(N)ncnc32)[C@H](O)[C@@H]1OP(=O)(O)O [Oleoyl(18:1)-CoA] | 1.4 µM |  |  |
| CC(C)(COP(=O)(O)OP(=O)(O)OC[C@H]1O[C@@H](n2cnc3c(N)ncnc32)[C@H](O)[C@@H]1OP(=O)(O)O)[C@@H](O)C(=O)NCCC(=O)NCCS [free CoA] |  |  | binding to HNF-4α (in words) (HNF-4α [1]; GST-HNF-4α(LBD) or His-HNF-4α): inactive |
